Assay results taken from article PMC10023787, “Trio-pharmacophore DNA-encoded chemical library for simultaneous selection of fragments and linkers” (Nature Communications, 2023).
Entries after “also recorded” stand apart in the source; their conditions may differ. Read-outs that look alike come from different tables or passages of the source. One block for each compound: values may come before it.

Target: T1, MMP-2 (Homo sapiens, UniProt P08253)
T1 construct: purchased Sino Biological 10082-HNAH
T1 sequence (P08253 110-660): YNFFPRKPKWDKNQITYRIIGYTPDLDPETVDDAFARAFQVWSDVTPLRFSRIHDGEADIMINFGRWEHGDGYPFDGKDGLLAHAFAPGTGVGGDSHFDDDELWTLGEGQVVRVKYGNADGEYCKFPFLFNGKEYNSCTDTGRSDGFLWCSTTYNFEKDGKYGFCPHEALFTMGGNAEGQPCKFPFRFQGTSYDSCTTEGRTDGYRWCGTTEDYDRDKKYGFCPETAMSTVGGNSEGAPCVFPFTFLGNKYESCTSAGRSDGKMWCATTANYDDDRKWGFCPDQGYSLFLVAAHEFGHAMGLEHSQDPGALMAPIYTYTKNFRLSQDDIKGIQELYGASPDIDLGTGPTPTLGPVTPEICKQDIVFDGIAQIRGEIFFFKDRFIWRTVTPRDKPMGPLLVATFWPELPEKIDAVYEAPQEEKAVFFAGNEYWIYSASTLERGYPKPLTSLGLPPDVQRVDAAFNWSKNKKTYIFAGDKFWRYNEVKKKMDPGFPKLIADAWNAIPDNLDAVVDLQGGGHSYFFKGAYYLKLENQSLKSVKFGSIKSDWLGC
Assay: MMP-2 inhibition assay (fluorogenic peptide substrate)
Assay type: biochemical
Settings: for inhibitory effect: in words
Summary of the method: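 Hydrolysis of DNP-Pro-Leu-Gly-Met-Trp-Ser-Arg (25 μM final) was tracked kinetically at em 360 nm over 30 min. Enzymes, APMA-activated and at 10 nM (MMP-9) or 6.5 nM (MMP-2) final, sat 30 min at RT with inhibitor in pH 7.5 Tris buffer with CaCl2 and Brij 35 first. Logistic fitting of Vmax against concentration gave IC50, in triplicate.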

[1] = read-out: Mean (MMP-2, Supplementary fig 16)
[2] = read-out: Mean (MMP-2 dose-response, Supplementary fig 15)
[3] = read-out: Mean (dose-response, Supplementary fig 17)
[4] = read-out: Normalized activity (Mean)

remaining activity at 0.0305176 µM (Figure 5a, fragment concentration 0.0305176 µM, read-out: Normalized activity (Mean)): 105% | remaining activity at 0.12207 µM (Figure 5a, fragment concentration 0.12207 µM, read-out: Normalized activity (Mean)): 112% | remaining activity at 0.488281 µM (Figure 5a, fragment concentration 0.488281 µM, read-out: Normalized activity (Mean)): 97.4% | remaining activity at 1.95312 µM (Figure 5a, fragment concentration 1.95312 µM, read-out: Normalized activity (Mean)): 96.2% | remaining activity at 7.8125 µM (Figure 5a, fragment concentration 7.8125 µM, read-out: Normalized activity (Mean)): 103% | remaining activity at 31.25 µM (Figure 5a, fragment concentration 31.25 µM, read-out: Normalized activity (Mean)): 92.9% | remaining activity at 125 µM (Figure 5a, fragment concentration 125 µM, read-out: Normalized activity (Mean)): 97.7% | remaining activity at 500 µM (Figure 5a, fragment concentration 500 µM, read-out: Normalized activity (Mean)): 89.5% | remaining activity at 0.12 µM (MMP-2, concentration 0.12 µM, read-out: Mean (MMP-2, Supplementary fig 16)): 112% | remaining activity at 0.49 µM (MMP-2, concentration 0.49 µM, read-out: Mean (MMP-2, Supplementary fig 16)): 97.4% | remaining activity at 1.95 µM (MMP-2, concentration 1.95 µM, read-out: Mean (MMP-2, Supplementary fig 16)): 96.2% | remaining activity at 7.81 µM (MMP-2, concentration 7.81 µM, read-out: Mean (MMP-2, Supplementary fig 16)): 103% | remaining activity at 31.25 µM (MMP-2, concentration 31.25 µM, read-out: Mean (MMP-2, Supplementary fig 16)): 92.9% | remaining activity at 125 µM (MMP-2, concentration 125.00 µM, read-out: Mean (MMP-2, Supplementary fig 16)): 97.7% | remaining activity at 500 µM (MMP-2, concentration 500.00 µM, read-out: Mean (MMP-2, Supplementary fig 16)): 89.5% | remaining activity at 0.12 µM (MMP-2, concentration 0.12 µM, read-out: Mean (MMP-2 dose-response, Supplementary fig 15)): 112% | remaining activity at 0.12 µM (MMP-2, concentration 0.12 µM, read-out: Mean (dose-response, Supplementary fig 17)): 112% | remaining activity at 0.49 µM (MMP-2, concentration 0.49 µM, read-out: Mean (MMP-2 dose-response, Supplementary fig 15)): 97.4% | remaining activity at 0.49 µM (MMP-2, concentration 0.49 µM, read-out: Mean (dose-response, Supplementary fig 17)): 97.4% | remaining activity at 1.95 µM (MMP-2, concentration 1.95 µM, read-out: Mean (MMP-2 dose-response, Supplementary fig 15)): 96.2% | remaining activity at 1.95 µM (MMP-2, concentration 1.95 µM, read-out: Mean (dose-response, Supplementary fig 17)): 96.2% | remaining activity at 7.81 µM (MMP-2, concentration 7.81 µM, read-out: Mean (MMP-2 dose-response, Supplementary fig 15)): 103% | remaining activity at 7.81 µM (MMP-2, concentration 7.81 µM, read-out: Mean (dose-response, Supplementary fig 17)): 103% | remaining activity at 31.25 µM (MMP-2, concentration 31.25 µM, read-out: Mean (MMP-2 dose-response, Supplementary fig 15)): 92.9% | remaining activity at 31.25 µM (MMP-2, concentration 31.25 µM, read-out: Mean (dose-response, Supplementary fig 17)): 92.9% | remaining activity at 125 µM (MMP-2, concentration 125.00 µM, read-out: Mean (MMP-2 dose-response, Supplementary fig 15)): 97.7% | remaining activity at 125 µM (MMP-2, concentration 125.00 µM, read-out: Mean (dose-response, Supplementary fig 17)): 97.7% | remaining activity at 500 µM (MMP-2, concentration 500.00 µM, read-out: Mean (MMP-2 dose-response, Supplementary fig 15)): 89.5% | remaining activity at 500 µM (MMP-2, concentration 500.00 µM, read-out: Mean (dose-response, Supplementary fig 17)): 89.5%
SMILES: Cn1c(O)nc2cc(C(=O)O)cnc21 [Compound 826]
inhibitory effect: No inhibitory effects could be measured; also recorded: did not exhibit meaningful activity

SMILES: O=C(O)c1cncc(O)c1 [Compound 828]
inhibitory effect: high µM range | IC50 (mean ± SE, n.d: not detected, Fig. 5d unit inferred, µM, read-out: IC50): 385 ± 67.3 µM | remaining activity at 0.0156 µM [1]: 104% | remaining activity at 0.08 µM [1]: 94% | remaining activity at 0.39 µM [1]: 105% | remaining activity at 1.95 µM [1]: 107% | remaining activity at 9.76 µM [1]: 90.1% | remaining activity at 48.78 µM [1]: 83.6% | remaining activity at 243.9 µM [1]: 67.9% | remaining activity at 1219.51 µM [1]: 0% | remaining activity at 0.0156 µM [2]: 104% | remaining activity at 0.08 µM [2]: 94% | remaining activity at 0.39 µM [2]: 105% | remaining activity at 1.95 µM [2]: 107% | remaining activity at 9.76 µM [2]: 90.1% | remaining activity at 48.78 µM [2]: 83.6% | remaining activity at 243.9 µM [2]: 67.9% | remaining activity at 1219.51 µM [2]: 0% | remaining activity at 0.0156 µM [3]: 104% | remaining activity at 0.08 µM [3]: 94% | remaining activity at 0.39 µM [3]: 105% | remaining activity at 1.95 µM [3]: 107% | remaining activity at 9.76 µM [3]: 90.1% | remaining activity at 48.78 µM [3]: 83.6% | remaining activity at 243.9 µM [3]: 67.9% | remaining activity at 1219.51 µM [3]: 0% | remaining activity at 0.0156098 µM [4]: 104% | remaining activity at 0.0780488 µM [4]: 94% | remaining activity at 0.390244 µM [4]: 105% | remaining activity at 1.95122 µM [4]: 107% | remaining activity at 9.7561 µM [4]: 90.1% | remaining activity at 48.7805 µM [4]: 83.6% | remaining activity at 243.902 µM [4]: 67.9% | remaining activity at 1219.51 µM [4]: 0%
